Test results taken from article PMC1175996, “Guanine-nucleotide exchange on ribosome-bound elongation factor G initiates the translocation of tRNAs” (Journal of Biology, 2005).

Columns and labels:
[1] = target: T1, EF-G on 70S ribosome complexes (preT / postTerm) (Escherichia coli, UniProt P0A6M8); experiment: nitrocellulose filtration of ribosome-bound EF-G•[3H]-GDPNP; format: binding; details: labelled compound; 2 μM EF-G; 92 nM postTerm or naked 70S ribosomes; 1 μM [3H]-GDPNP; 37°C
T1 construct: gene fusA
T1 sequence (P0A6M8 2-704, one chain of several): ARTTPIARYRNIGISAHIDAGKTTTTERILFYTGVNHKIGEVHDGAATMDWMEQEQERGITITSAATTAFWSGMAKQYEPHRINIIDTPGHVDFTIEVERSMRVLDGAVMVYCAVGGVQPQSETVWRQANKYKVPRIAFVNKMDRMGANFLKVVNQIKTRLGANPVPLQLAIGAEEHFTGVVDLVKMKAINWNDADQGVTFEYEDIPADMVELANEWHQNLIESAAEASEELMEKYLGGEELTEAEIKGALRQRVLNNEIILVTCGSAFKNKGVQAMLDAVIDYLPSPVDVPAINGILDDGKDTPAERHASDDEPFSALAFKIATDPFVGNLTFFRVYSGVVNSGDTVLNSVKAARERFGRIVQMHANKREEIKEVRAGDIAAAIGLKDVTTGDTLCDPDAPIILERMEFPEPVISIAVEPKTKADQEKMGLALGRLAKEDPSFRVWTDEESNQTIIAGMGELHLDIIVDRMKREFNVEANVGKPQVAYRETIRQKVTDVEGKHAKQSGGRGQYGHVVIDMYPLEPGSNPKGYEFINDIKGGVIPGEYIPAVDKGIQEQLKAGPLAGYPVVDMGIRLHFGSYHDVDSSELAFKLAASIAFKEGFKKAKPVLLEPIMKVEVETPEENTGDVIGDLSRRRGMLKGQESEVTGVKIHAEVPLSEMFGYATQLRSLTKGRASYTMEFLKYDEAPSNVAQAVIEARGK

[2] = target: T2, EF-G (free elongation factor G) (Escherichia coli, UniProt P0A6M8); experiment: nitrocellulose filtration, Scatchard plot; format: binding
T2 construct: gene fusA; purified EF-G, free in solution (no ribosome)
T2 sequence (P0A6M8 2-704): as the sequence (P0A6M8 2-704, one chain of several) above

[3] = target: T1, EF-G on 70S ribosome complexes (preT / postTerm); experiment: translocation rate by RF2-dependent fMet-Ile release, EF-G recycling; format: biochemical; details: read-out: I50
[4] = target: T2, EF-G (free elongation factor G); experiment: nitrocellulose filtration, chase of [3H]-GDP by purified unlabelled GTP; format: binding; details: read-out: KGTP

## Nc1nc2c(ncn2[C@@H]2O[C@H](COP(=O)(O)OP(=O)(O)NP(=O)(O)O)[C@@H](O)[C@H]2O)c(=O)[nH]1 [GDPNP]
[1]
  nitrocellulose filtration of ribosome-bound EF-G•[3H]-GDPNP: EF-G, bound to either type of ribosome, had much higher affinity for GDPNP than for GDP

## Nc1nc2c(ncn2[C@@H]2O[C@H](COP(=O)(O)OP(=O)(O)O)[C@@H](O)[C@H]2O)c(=O)[nH]1 [GDP]
[2]
  Kd: ~9 µM
[3]
  IC50: 250 µM

## Nc1nc2c(ncn2[C@@H]2O[C@H](COP(=O)(O)OP(=O)(O)OP(=O)(O)O)[C@@H](O)[C@H]2O)c(=O)[nH]1 [GTP]
[4]
  Kd: > 600 µM
